Columns and labels:
[1] = system: food intake in rats and mice; test: Feeding experiments, acute dose-response on food intake; type: in vivo; details: oral single dose, food intake 1 h after lights out
Method: Male Sprague Dawley rats (weighing 250-300 g at the time of experiment) were obtained from Charles River (Sulzfeld, Kisslegg, Germany). Male C57Bl/6J Rj mice (weighing 25-30 g at the time of experiments) were obtained from Janvier (Le Genest-St-Isle, France). All animals had free access to water and were individually housed under 12-h light:dark cycle (lights on at 22:00 h) and at a temperature of 19-22° C. and 35-40% humidity in Techniplast IVC cages adapted to fit external food hoppers. Rats and mice were fed a standard purified diet containing 10% kcal fat (Dyets, Inc. Bethlehem, USA; or Research diets, New Brunswick, N.J., USA). All experiments were carried out in accordance with the European Communities Council Directives (86/609/EEC) and were approved by the local ethical committee.
An acute dose-response analysis for each compound was performed. All rats and mice were randomly assigned and orally dosed with either vehicle (10% cyclodextran containing 0.9% (w/v) saline) or vehicle containing a single concentration of compound (0.16, 0.63, 2.50, 10.0, 40.0 mg/kg at 10 ml/kg) so that the average latency from time of drug administration and lights out was 45 minutes, with 6 animals per group. Food intake was measured 1, 2, 4, 6 and 24 hours after lights out.

[2] = biological target: T1, Cb-1 receptor stably expressed in CHO-K1 cells (Homo sapiens, UniProt P21554); test: Cyclic AMP accumulation (HTRF cAMP assay, antagonism of CP55940); type: cell-based; details: forskolin and CP55940 (agonist), 30 min at 25° C.; for IC50: read-out: Example C2 cAMP (antagonism) pIC50 (converted)
T1 construct: host or cells: CHO-K1
Method: (§1) Human Cb-1 transfected CHO-K1 cells (Euroscreen; Cat # ES-110-C; hCB1-D1; accession n′ Swissprot X54937) were maintained as described previously (Felder et al., 1995 & 1998). For membrane preparation, cells were cultured in DMEM/Ham's F12 medium containing 10% (v/v) heat inactivated FCS, 100 U/ml penicillin and 100 μg/ml streptomycin, 100 μg/ml pyruvate and 292 μg/ml L-glutamine under 5% CO2 at 37° C. in roller bottles, with medium changed 3 times a week. When 90% confluent, cells collected by trypsinisation and re-seeded at 1:10 or 1:20 dilutions to fresh roller bottles. For measurement of cAMP formation, cells were cultured to 90% confluency in Falcon T175 flasks.
Using the commercially available dynamic homogenous time-resolved fluorescence cAMP assay, the cAMP measurements on CHO-K1 cells that stably express the Cb-1 receptor were performed. Cells were detached from flasks using 3 ml EDTA (0.04% (w/v) in PBS) and resuspended in PBS (without Ca^2+ and Mg^2+) and centrifuged at 500×g for 5 min. Cell pellet was resuspended in stimulation buffer (HBSS medium containing 1 mM IBMX, 5 mM Hepes, 10 mM MgCl2 and 0.1% (w/v) BSA) and were dispensed into a black 96 well plate at a cell density of 20000 cells per well. After 30 min at 25° C., an equal volume of stimulation buffer containing forskolin and CP55940 (agonist) and/or a Cb-1 antagonist was added to the cells. After 30 min incubation at 25° C., cAMP detection was performed by addition of an equal volume of cAMP-XL665 and anti-cAMP-cryptate conjugates. The plate was incubated for a further 60 min at 25° C. and then measured with Discovery (PerkinElmer N.V./S.A. Belgium).

[3] = biological target: T2, Human Cb-1 receptor (transfected CHO-K1 cell membranes) (Homo sapiens, UniProt P21554); test: Cb-1 competition receptor binding in cell membranes ([3H]CP55,940 displacement); details: 3H-CP55,940 0.5 nM, 1 hour at 25° C.; for IC50: read-out: Example C1 Binding pIC50 (converted)
T2 construct: host or cells: CHO-K1
Method: as §1
Prior to membrane preparation, confluent cells were treated with 5 mM butyrate for 24 hours. Medium was aspirated and cells were scraped from bottles in 50 ml homogenization buffer consisting of 15 mM Tris-HCl, pH 7.4 containing 2 mM MgCl2, 0.3 mM EDTA and 1 mM EGTA. The cells were then centrifuged for 10 minutes at 1700×g at 4° C. and homogenized in 20 ml same buffer with an Ultra Turrax. The crude membrane pellet was collected by two consecutive centrifugation steps at 20,000×g for 10 min and for 20 min at 25,000×g respectively, separated by a washing/homogenization step in 10 ml homogenization buffer. Final cell pellets were resuspended in a volume of 6 ml/roller bottle in stock buffer consisting of 7.5 mM Tris-HCl, pH 7.4, containing 12.5 mM MgCl2, 0.3 mM EDTA, 1 mM EGTA and 250 mM sucrose. Protein content was assayed by the BioRad method (Bradford, 1976).
Competition binding assays were performed in triplicate in a final volume of 0.5 ml containing incubation buffer (50 mM Tris-HCl, pH 7.4 containing 2.5 mM EDTA and 0.5% (w/v) BSA), 50 μl ^3H-CP55,940 (0.5 nM final), 0.4 ml transfected CHO-K1 membrane proteins (60 μg/ml) in the presence or absence of test compound. Non-specific binding determined using 1 μM CP55,940. The samples were incubated for 1 hour at 25° C., being terminated by rapid filtration on GF/C filters presoaked in 0.1% polyethylenimine, using a Unifilter-96 Harvester (PerkinElmer N.V./S.A. Belgium). Filters were washed 6 times with cold washing buffer (50 mM Tris-HCl, pH 7.4 containing 0.1% BSA), plates air-dried overnight before bound [^3H]CP55,940 was measured by liquid scintillation counting using a TopCount NXT microplate scintillation counter (Packard BioScience/ PerkinElmer N.V./S.A. Belgium). IC50 values were determined by a single-site binding equation (GraphPad Prism, San Diego, Calif., U.S.A.).

[4] = biological target: T2, Human Cb-1 receptor (transfected CHO-K1 cell membranes); test: as above; details: statement on the enantiomers of the racemate, no test named

T1 sequence (P21554 whole entry): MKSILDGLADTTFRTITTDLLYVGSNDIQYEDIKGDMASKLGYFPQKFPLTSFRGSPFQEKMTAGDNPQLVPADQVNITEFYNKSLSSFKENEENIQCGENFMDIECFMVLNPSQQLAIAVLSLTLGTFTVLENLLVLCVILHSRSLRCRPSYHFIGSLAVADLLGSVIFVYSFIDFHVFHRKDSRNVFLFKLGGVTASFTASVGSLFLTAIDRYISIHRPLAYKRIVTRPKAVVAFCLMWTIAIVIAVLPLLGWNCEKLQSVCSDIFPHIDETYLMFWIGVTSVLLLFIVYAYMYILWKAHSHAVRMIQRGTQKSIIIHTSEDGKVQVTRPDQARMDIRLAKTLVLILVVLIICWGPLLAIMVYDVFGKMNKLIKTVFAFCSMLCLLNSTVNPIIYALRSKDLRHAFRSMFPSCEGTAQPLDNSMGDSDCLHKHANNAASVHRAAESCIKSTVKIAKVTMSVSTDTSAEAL
T2 sequence (P21554 whole entry): as above

IC50 [3] [nM]	Example C1 Binding pIC50 [3]	Compound	also measured
288	–	Clc1ccc(C(c2ccc3nnn(C4CCCCC4)c3c2)n2cncn2)cc1 (racemic) [Intermediate 7, 1H-Benzotriazole, 6-[(4-chlorophenyl)-1H-1,2,4-triazol-1-ylmethyl]-1-cyclohexyl-]	ED50 ([1]; po, 1 h, read-out: Example C3 Food intake at 1 h ED50): 3.28 mg/kg; IC50 [2]: 36.3 nM
5370	–	Cn1nnc2ccc(C(c3ccc(Cl)cc3)c3nccs3)cc21 (stereo not drawn) [Compound 6]	–
–	6.05	c1ccc(C(c2ccc3nnn(C4CCCCC4)c3c2)n2ccnc2)cc1 (stereo not drawn) [Compound 9]	Example C2 cAMP (antagonism) pIC50 [2]: 5.79
–	6.28	Clc1ccc(C(c2ccc3nnn(-c4ccccc4)c3c2)n2ccnc2)cc1 (stereo not drawn) [Compound 10]	Example C2 cAMP (antagonism) pIC50 [2]: 6.38
–	5.67	CC(c1ccccc1)n1nnc2ccc(C(c3ccc(Cl)cc3)n3ccnc3)cc21 (stereo not drawn) [Compound 11]	–
–	5.53	CC(C)n1nnc2ccc(C(c3ccc(Cl)cc3)n3ccnc3)cc21 (stereo not drawn) [Compound 12]	–
–	5.61	Clc1ccc(C(c2ccc3nnn(Cc4ccccc4)c3c2)n2ccnc2)cc1 (stereo not drawn) [Compound 13]	–

The remaining lines, values behind:

Compound	IC50 [3] [nM]	Example C1 Binding pIC50 [3]	also measured
Clc1ccc([C@H](c2ccc3nnn(C4CCCCC4)c3c2)n2cncn2)cc1 (single isomer, unassigned) [Compound 1]	8910	–	Example C3 Food intake at 1 h ED50 [1]: >100 mg/kg
Clc1ccc([C@H](c2ccc3nnn(C4CCCCC4)c3c2)n2cncn2)cc1 (single isomer, unassigned) [Compound 2, 1H-Benzotriazole, (−)-6-[(4-chlorophenyl)-1H-1,2,4-triazol-1-ylmethyl]-1-cyclohexyl-]	141	–	Example C3 Food intake at 1 h ED50 [1]: 2.69 mg/kg
Clc1ccc([C@H](c2ccc3nnn(C4CCCCC4)c3c2)n2cncn2)cc1 [Compound 2, 1H-Benzotriazole, (−)-6-[(4-chlorophenyl)-1H-1,2,4-triazol-1-ylmethyl]-1-cyclohexyl-]	–	–	active as a CB1 modulator [4]: active
CC(C)CCn1nnc2ccc(C(c3ccc(Cl)cc3)n3ccnc3)cc21 (stereo not drawn) [Compound 4]	933	–	IC50 [2]: 339 nM
Clc1ccc(Cn2nnc3ccc(C(c4ccc(Cl)cc4)n4ccnc4)cc32)cc1 (stereo not drawn) [Compound 5]	832	–	IC50 [2]: 955 nM
CC(C)n1nnc2ccc(C(c3ccc(Cl)cc3)n3cncn3)cc21 (stereo not drawn) [Compound 7]	–	6.69	Example C2 cAMP (antagonism) pIC50 [2]: 6.9
CCCCn1nnc2ccc(C(c3ccc(Cl)cc3)n3cncn3)cc21 (stereo not drawn) [Compound 8]	–	6.45	Example C2 cAMP (antagonism) pIC50 [2]: 6.62

— patent US20080194656A1, “Benzotriazole Derivatives as Cannabinoid Receptor Antagonists” (priority 2005, published 2008)
